Source: article PMC9656811, “Structure-Based Discovery and Biological Assays of a Novel PRMT5 Inhibitor for Non-Small Cell Lung Cancer” (Molecules, 2022)

Molecular target: Protein arginine methyltransferase 5 (PRMT5) (Homo sapiens, UniProt O14744)
Test: AlphaLISA methyltransferase assay, […] concentrations, PRMT5 from BPS Bioscience (Cat. No. […])
Type: biochemical

Protein arginine methyltransferase 5 (PRMT5), sequence (O14744 2-637): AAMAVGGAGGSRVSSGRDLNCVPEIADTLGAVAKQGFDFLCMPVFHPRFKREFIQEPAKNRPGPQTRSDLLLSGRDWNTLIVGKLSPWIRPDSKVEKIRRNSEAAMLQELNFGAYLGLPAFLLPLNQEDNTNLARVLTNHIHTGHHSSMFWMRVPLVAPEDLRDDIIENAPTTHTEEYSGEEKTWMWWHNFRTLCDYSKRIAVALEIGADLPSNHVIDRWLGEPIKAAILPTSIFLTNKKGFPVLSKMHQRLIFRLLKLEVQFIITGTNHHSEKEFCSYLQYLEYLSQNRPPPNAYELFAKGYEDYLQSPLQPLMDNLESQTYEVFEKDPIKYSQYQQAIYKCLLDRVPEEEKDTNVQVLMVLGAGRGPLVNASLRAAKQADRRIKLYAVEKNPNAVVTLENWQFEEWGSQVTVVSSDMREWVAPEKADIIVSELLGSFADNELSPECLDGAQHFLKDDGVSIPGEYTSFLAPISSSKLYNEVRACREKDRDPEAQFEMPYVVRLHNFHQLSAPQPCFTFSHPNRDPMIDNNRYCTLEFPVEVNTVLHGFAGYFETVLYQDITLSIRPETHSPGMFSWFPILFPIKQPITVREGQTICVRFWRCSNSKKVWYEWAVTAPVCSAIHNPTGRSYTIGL
Protein arginine methyltransferase 5 (PRMT5), sequence (Q9BQA1 whole entry partner): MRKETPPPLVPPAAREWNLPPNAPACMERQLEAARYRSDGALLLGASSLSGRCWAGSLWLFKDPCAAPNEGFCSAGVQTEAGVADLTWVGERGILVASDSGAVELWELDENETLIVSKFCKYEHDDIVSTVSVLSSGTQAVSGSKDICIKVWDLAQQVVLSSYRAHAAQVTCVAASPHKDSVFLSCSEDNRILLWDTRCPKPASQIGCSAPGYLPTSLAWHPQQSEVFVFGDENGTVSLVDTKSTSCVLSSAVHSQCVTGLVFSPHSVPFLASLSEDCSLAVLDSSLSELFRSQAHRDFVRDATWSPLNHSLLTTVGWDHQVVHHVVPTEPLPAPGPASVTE

IC50: 63 µM
Structure (SMILES): O=C1c2ccccc2C(=O)c2c(NCCCN(CCO)CCO)cccc21 [3039-0164]
